Reference: paper PMC11784145, “Efficacy and in vitro pharmacological assessment of novel N-hydroxypyridinediones as hepatitis B virus ribonuclease H inhibitors” (Antimicrobial Agents and Chemotherapy, 2024)

Legend:
plasma proteins = assay: Plasma protein binding, rapid equilibrium dialysis; assay type: in vitro ADME, bovine; settings: 10 µM compound, DMEM-F12 with 10% FBS (0.25 mg/mL BSA), 4 h, 37°C
Description: Plasma protein binding was performed using the Pierce rapid equilibrium dialysis device (Thermo Fisher) per the manufacturer’s instructions, as described ([27]). Briefly, the sample wells contained DMEM-F12 supplemented with 10% FBS spiked with 10 µM compound, and the buffer wells contained phosphate-buffered saline (PBS). The plate was incubated for 4 h at 37°C with shaking, after which 50 µL was retrieved from the buffer and sample wells and added to ice-cold acetonitrile and the internal standard described above. Samples were matrix-matched with PBS supplemented with 10% FBS or PBS alone, respectively, and centrifuged at 4,000 × g for 5 min to pellet plasma proteins. The supernatants were analyzed by LCMS/MS and percent compound bound was determined, as described previously ([27]).

[1] = tested on: HBV replication (HBV plus-polarity DNA strand); assay: HBV replication inhibition, strand preferential qPCR in hepDES19 cells; assay type: cell-based, hepatitis B virus; settings: for EC50: 72 h exposure, HBV plus-polarity strand suppression, highest concentration tested 100 µM, mean ± SD, read-out: HepDES19 EC50
Description: HBV replication inhibition was measured in hepDES19 cells following 72 h compound exposure without compound replenishment. EC50 values were determined by HBV plus-polarity strand suppression using a strand preferential qPCR assay, as described previously ([28]). Three or more replicate values were obtained on different days.

[2] = Solubility limit, turbidimetric assay; assay type: physicochemical; settings: upper limit 200 µM
Description: Solubility limits were determined by a turbidimetric assay, as described ([27]), with the solubility limit being defined as the compound concentration where light scattering began to rise. Two or more replicate assays were performed for each compound at each pH on different days.

[3] = Parallel artificial membrane permeability assay (PAMPA); assay type: in vitro ADME
Description: Compound Papp values were determined by normalizing the experimental compound absorbance to the compounds’ absorbances at equilibrium, membrane porosity, buffer volume, and time (s). Two or more replicate assays were obtained on separate days for each pH.

CYP2D6 = biological target: T1, CYP2D6 (Homo sapiens, UniProt P10635); assay: Cytochrome P450 inhibition, Vivid 2D6 EOMCC Blue kit; assay type: in vitro ADME; settings: dose-response 50 µM to 3 nM; mean ± SD
T1 construct: purchased Thermo Fisher Vivid 2D6 EOMCC Blue
Description: (§1) Compound inhibition of Cytochrome P (CYP) 3A4, 2C9, and 2D6 was determined using Vivid CYP450 screening kits (Thermo Fisher) according to the manufacturer’s instructions, as described previously ([27]). The kits employed were: Vivid 3A4 DBOMF Green, 2C9 BOMF Green, and 2D6 EOMCC Blue. Reactions were initiated by addition of the fluorophore-conjugated substrates with Vivid NADP^+ and were conducted at 37°C using either a Biotek Synergy HTX multi-mode plate reader with 485/20 nm excitation and 520/20 nm emission filters (green-fluorescent substrate), or a Tecan Spark plate reader with monochromator settings at 415/20 nm excitation and 460/20 nm emission (blue-fluorescent substrate) defined by the Center Wavelength/band-pass values. Substrate cleavage was detected every 60 s.
(§2) Compounds were initially screened against each enzyme at 10 µM and maximum rates of fluorescence in RFU were calculated using the Biotek Gen5 v3.11 software. Percent inhibition of experimental compound reactions was normalized to the rate to DMSO vehicle reactions. Positive controls used were: CYP3A4—ketoconazole (Sigma Aldrich), CYP2C9—sulfaphenazole (Cayman Chemical), and CYP2D6—quinidine (Fisher Scientific). Dose-response curves were generated for compounds that inhibited an enzyme by ≥50% using titrated concentrations of compound (50 µM to 3 nM) or 1% DMSO. IC50 values were determined using the four-parameter log[inhibitor] versus response algorithm in GraphPad Prism. Qualitative screens and dose-response curves were each performed in triplicate on different days.

HepDES19 cells = settings: read-out: HepDES19 CC50; 72 h, MTS; highest concentration tested 100 µM; mean ± SD
Description: HepDES19 cells were plated on 96-well tissue culture-treated plates (Greiner) at 1.0 × 10^4 cells per well and incubated for 48 h. Cells were treated with titrated concentrations of compound or 1% DMSO vehicle for 72 h, and cellular viability was measured by 3-(4,5-dimethylthiazol-2-yl)−5-(3-carboxymethoxyphenyl)−2-(4-sulfophenyl)−2H-tetrazolium (MTS) assays, as described previously ([20]). […] Three or more replicate assays were done on different days.

CYP3A4 = biological target: T2, CYP3A4 (Homo sapiens, UniProt P08684); assay: Cytochrome P450 inhibition, Vivid 3A4 DBOMF Green kit; assay type: in vitro ADME; settings: 10 µM compound
T2 construct: purchased Thermo Fisher Vivid 3A4 DBOMF Green
Description: as §1
as §2, with “Dose-response curves were generated for compounds that inhibited an enzyme by ≥50% using titrated concentrations of compound (50 µM to 3 nM) or 1% DMSO.” left out, “Qualitative screens and dose-response curves were each performed in triplicate on different days.” left out

Microsome stability = assay type: in vitro ADME, human; settings: human, microsomes
Description: Human liver microsomes (gender pooled, 50 individuals) were purchased from BioIVT and stored at −80°C until use. […] Reactions were initiated by addition of 1.2 mM NADPH. […] Microsomal proteins were pelleted at 4,000 × g and the supernatant was analyzed via LCMS/MS. […] The ln percent remaining values were plotted against time, the negative slope was taken (k), and compound half-life (t1/2) was determined using ln2/k. Intrinsic clearance (Clint [µL/min/mg]) was calculated by (V × ln2)/t1/2, where V is the incubation volume (µL) divided by the protein concentration in the reaction (mg) ([31]).

[4] = pH 5 (fed simulated intestinal fluid)
[5] = pH 6.5 (fasted simulated intestinal fluid)

T1 sequence (P10635 whole entry): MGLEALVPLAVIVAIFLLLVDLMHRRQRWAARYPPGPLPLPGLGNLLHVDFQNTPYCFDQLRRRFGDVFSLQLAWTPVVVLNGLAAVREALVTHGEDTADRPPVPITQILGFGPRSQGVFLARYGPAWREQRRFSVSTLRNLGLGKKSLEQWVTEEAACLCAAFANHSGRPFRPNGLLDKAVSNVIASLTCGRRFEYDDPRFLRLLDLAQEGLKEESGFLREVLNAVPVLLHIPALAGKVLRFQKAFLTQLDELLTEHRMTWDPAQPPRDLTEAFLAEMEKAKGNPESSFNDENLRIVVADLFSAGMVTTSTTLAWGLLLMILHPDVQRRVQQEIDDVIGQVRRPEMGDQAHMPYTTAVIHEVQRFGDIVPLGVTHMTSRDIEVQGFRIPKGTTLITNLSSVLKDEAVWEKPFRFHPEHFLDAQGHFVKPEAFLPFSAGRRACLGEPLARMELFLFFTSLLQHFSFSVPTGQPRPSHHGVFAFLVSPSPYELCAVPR
T2 sequence (P08684 whole entry): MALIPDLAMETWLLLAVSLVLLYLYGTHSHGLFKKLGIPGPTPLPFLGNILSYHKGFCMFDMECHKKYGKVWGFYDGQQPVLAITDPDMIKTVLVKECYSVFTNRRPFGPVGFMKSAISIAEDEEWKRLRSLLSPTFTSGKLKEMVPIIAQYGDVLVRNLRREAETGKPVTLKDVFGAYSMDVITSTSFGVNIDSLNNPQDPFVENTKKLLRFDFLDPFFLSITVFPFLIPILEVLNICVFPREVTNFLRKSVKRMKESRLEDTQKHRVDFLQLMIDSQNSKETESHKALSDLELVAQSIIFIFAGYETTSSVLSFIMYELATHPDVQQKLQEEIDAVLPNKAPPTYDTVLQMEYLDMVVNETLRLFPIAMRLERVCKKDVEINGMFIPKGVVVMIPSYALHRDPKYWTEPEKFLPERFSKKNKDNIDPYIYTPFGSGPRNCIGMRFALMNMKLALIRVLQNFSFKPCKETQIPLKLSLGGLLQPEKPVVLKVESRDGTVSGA

Row | SMILES | HepDES19 SI (CC50/EC50) [1] | EC50 [1] [µM] | Average Sol (solubility limit) [2, 4] [µM] | Sol 1 (solubility limit) ([2]; pH 5, replicate 1) [µM] | Sol 2 (solubility limit) ([2]; pH 5, replicate 2) [µM] | Average Sol (solubility limit) [2, 5] [µM] | Sol 1 (solubility limit) ([2]; pH 6.5, replicate 1) [µM] | Sol 2 (solubility limit) ([2]; pH 6.5, replicate 2) [µM] | Average Sol (solubility limit) ([2]; pH 7.4 (DMEM-F12 with 10% FBS)) [µM] | Sol 1 (solubility limit) ([2]; pH 7.4, replicate 1) [µM] | Sol 2 (solubility limit) ([2]; pH 7.4, replicate 2) [µM] | Avg Papp (PAMPA) ([3]; FeSSIF pH 5) [×10⁻⁶ cm/s] | Interpretation (PAMPA Papp) ([3]; FeSSIF pH 5) | Papp 1 (PAMPA) ([3]; FeSSIF pH 5, replicate 1) [×10⁻⁶ cm/s] | Papp 2 (PAMPA) ([3]; FeSSIF pH 5, replicate 2) [×10⁻⁶ cm/s] | Avg Papp (PAMPA) ([3]; pH 7.4) [×10⁻⁶ cm/s] | Interpretation (PAMPA Papp) ([3]; pH 7.4) | Papp 1 (PAMPA) ([3]; pH 7.4, replicate 1) [×10⁻⁶ cm/s] | Papp 2 (PAMPA) ([3]; pH 7.4, replicate 2) [×10⁻⁶ cm/s] | CC50 (HepDES19 cells) [µM] | also measured
1 | Nc1ccn([C@@H]2CS[C@H](CO)O2)c(=O)n1 [Lamivudine, lamivudine, reference compound] |  |  |  |  |  |  |  |  |  |  |  |  |  |  |  |  |  |  |  |  | Percent bound (plasma proteins): 9.70 ± 11.3%; Percent bound (plasma proteins; listed as lamivudine): 10%
2 | CC(=NOCc1cccc(Cl)c1)c1c(C)cc(=O)n(O)c1O [Compound 1719] | 34.5 | 1.35 ± 1.03 | 150 | 100 | > 200 | > 200 | > 200 | > 200 | > 200 | > 200 | > 200 | 72.6 | H (H: Papp > 1*10-6) | 48.6 | 78.8 | 2.9 | H (H: Papp > 1*10-6) | 2.82 | 2.99 | 56.9 ± 31.1 | Papp 3 (PAMPA) ([3]; FeSSIF pH 5, replicate 3): 90.3 ×10⁻⁶ cm/s; IC50 (CYP2D6): 11.2 ± 3.79 µM
3 | CC(=NOCc1ccc(OCc2ccc(C(C)(C)C)cc2)cc1)c1c(C)cc(=O)n(O)c1O [Compound 1808] | 6.24 | 6 ± 0.17 | > 200 | > 200 | > 200 | > 200 | > 200 | > 200 | 100 | 100 | 100 |  | H (H: Papp > 1*10-6) | 32.2 | 9.19 | 2.97 | H (H: Papp > 1*10-6) | 3.7 | 2.6 | 38.2 ± 10.2 | Papp 3 (PAMPA) ([3]; FeSSIF pH 5, replicate 3): 81.4 ×10⁻⁶ cm/s; Papp 4 (PAMPA) ([3]; FeSSIF pH 5, replicate 4): 95.8 ×10⁻⁶ cm/s; Papp 3 (PAMPA) ([3]; pH 7.4, replicate 3): 2.6 ×10⁻⁶ cm/s; Percent inhibition of CYP3A4 (CYP3A4): ~ 42%; Clearance (intrinsic clearance, Clint) (Microsome stability): 10.1 µL/min/mg; Half-life (Microsome stability): >30 min
4 | CC(=NOCc1cccc(Br)c1)c1c(C)cc(=O)n(O)c1O [Compound 1621] | 192 | 0.52 ± 0.33 | > 200 | > 200 | > 200 | > 200 | > 200 | > 200 | > 200 | > 200 | > 200 | 26.3 | H (H: Papp > 1*10-6) | 31.7 | 20.9 | 4.53 | H (H: Papp > 1*10-6) | 0.49 | 4.47 | 78.5 ± 32.4 | Papp 3 (PAMPA) ([3]; pH 7.4, replicate 3): 10.6 ×10⁻⁶ cm/s; Papp 4 (PAMPA) ([3]; pH 7.4, replicate 4): 0.488 ×10⁻⁶ cm/s; Papp 5 (PAMPA) ([3]; pH 7.4, replicate 5): 6.7 ×10⁻⁶ cm/s; Papp 6 (PAMPA) ([3]; pH 7.4, replicate 6): 4.44 ×10⁻⁶ cm/s; IC50 (CYP2D6): 19.5 µM
